± gives the standard deviation of the averaged measurements.
How the values were obtained:
Assay in all cases: level (log10 ratio to DMSO vehicle control); higher = higher biomarker level / cell amount than vehicle control
[1] = compound: O=S(=O)(O)C(F)(F)C(F)(F)C(F)(F)C(F)(F)C(F)(F)C(F)(F)C(F)(F)C(F)(F)C(F)(F)C(F)(F)F [Sodium perfluorodecanesulfonate]; conditions: in DMSO
Description: (§1)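 BioMAP Diversity Plus panel of 12 human primary cell co-culture systems (3C, 4H, LPS, SAg, BT, BF4T, BE3C, CASM3C, HDF3CGF, KF3CT, MyoF, Mphg). Compounds were added 1 h before stimulation and left for 24 h (MyoF 48 h; BT 72 h for soluble read-outs or 6 d for IgG). Biomarkers were read by ELISA, cytotoxicity by SRB, PBMC viability and proliferation by Alamar Blue. Each well value was divided by the mean of 8 DMSO control wells on the same plate and log10 transformed; duplicate blinded samples were tested at 4 concentrations.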

[2] = compound: FC(F)(F)C(F)(F)C(F)(F)CC1CO1 [1H,1H-Heptafluorobutyl epoxide]; conditions: in DMSO
Description: as §1

[3] = compound: O=C(O)C=CC(F)(C(F)(F)F)C(F)(F)F [3-(Perfluoroisopropyl)-2-propenoic acid]; conditions: in DMSO
Description: as §1

[4] = compound: FC(F)(F)C(F)(F)C(F)(F)CI [Heptafluorobutyl iodide]; conditions: in DMSO
Description: as §1

[5] = compound: O=C(O)C(F)(F)C(F)(F)C(F)(F)C(F)(F)C(F)(F)C(F)(F)C(F)(F)C(F)(F)C(F)(F)C(F)F [11-H-Perfluoroundecanoic acid]; conditions: in DMSO
Description: as §1

[6] = compound: O=S(=O)(O)CCC(F)(F)C(F)(F)C(F)(F)C(F)(F)C(F)(F)C(F)(F)F [6:2 Fluorotelomer sulfonic acid]; conditions: in DMSO
Description: as §1

[7] = compound: C=C(C)C(=O)OCCC(F)(F)C(F)(F)C(F)(F)C(F)(F)C(F)(F)C(F)(F)F [6:2 Fluorotelomer methacrylate]; conditions: in DMSO
Description: as §1

[8] = compound: OCC(F)(F)C(F)(F)C(F)(F)CO [Hexafluoroamylene glycol]; conditions: in DMSO
Description: as §1

[9] = compound: O=S(=O)(Cl)C(F)(F)C(F)(F)C(F)(F)C(F)(F)C(F)(F)C(F)(F)C(F)(F)C(F)(F)F [Perfluoro-1-octanesulfonyl chloride]; conditions: in DMSO
Description: as §1

[10] = compound: NC(=O)C(F)(F)C(F)(F)C(F)(F)C(F)(F)C(N)=O [Octafluoroadipamide]; conditions: in DMSO
Description: as §1

[11] = compound: C=CC(=O)OCC(F)(F)C(F)(F)C(F)(F)COC(=O)C=C [1H,1H,5H,5H-Perfluoro-1,5-pentanediol diacrylate]; conditions: 6700 nM; in DMSO
Description: as §1

[12] = compound: NS(=O)(=O)C(F)(F)C(F)(F)C(F)(F)C(F)(F)C(F)(F)C(F)(F)F [Perfluorohexanesulfonamide]; conditions: in DMSO
Description: as §1

[13] = compound: FC(F)(F)C(F)(F)C(F)(F)C(F)(F)C(F)(F)C(F)(F)CC1CO1 [3-(Perfluorohexyl)-1,2-epoxypropane]; conditions: in DMSO
Description: as §1

[14] = compound: NC(=O)C(F)(F)C(F)(F)C(F)(F)C(F)(F)F [Nonafluoropentanamide]; conditions: in DMSO
Description: as §1

[15] = compound: O=S(=O)(F)C(F)(F)C(F)(F)C(F)(F)C(F)(F)C(F)(F)C(F)(F)C(F)(F)C(F)(F)F [Perfluorooctanesulfonyl fluoride]; conditions: in DMSO
Description: as §1

[16] = compound: COC(=O)C(F)(F)C(F)(F)OC(F)(C(F)(F)F)C(F)(F)OC(F)=C(F)F [Methyl perfluoro(3-(1-ethenyloxypropan-2-yloxy)propanoate)]; conditions: in DMSO
Description: as §1

[17] = compound: NC(=O)C(F)(F)C(F)(F)C(F)(F)C(F)F; conditions: in DMSO
Description: as §1

[18] = compound: FC(F)(F)C(F)(F)CNCC(F)(F)C(F)(F)F [Bis(1H,1H-perfluoropropyl)amine]; conditions: in DMSO
Description: as §1

[19] = compound: FC(F)(F)C(F)(F)C(F)(F)C(F)(F)C(F)(F)C(F)(F)C(F)(F)I [1-Iodopentadecafluoroheptane]; conditions: in DMSO
Description: as §1

For CASM3C:Serum Amyloid A, the “level (log10)” value ([1]; 1500 nM) was -0.0545 ± 0.022, the “level (log10)” value ([1]; 4400 nM) was -0.0135 ± 0.011 and the “level (log10)” value ([1]; 13000 nM) was 0.0365 ± 0.036. For the same test system, the “level (log10)” value ([1]; 40000 nM) was 0.182 ± 0.028, the “level (log10)” value ([2]; 6700 nM) was 0.0025 ± 0.012 and the “level (log10)” value ([2]; 20000 nM) was 0.003 ± 0.035. For the same test system, the “level (log10)” value ([2]; 60000 nM) was 0.032 ± 0.061, the “level (log10)” value ([3]; 6700 nM) was 0.0085 ± 0.005 and the “level (log10)” value ([3]; 20000 nM) was -0.023 ± 0.017. For the same test system, the “level (log10)” value ([3]; 60000 nM) was 0.026 ± 0.045, the “level (log10)” value ([4]; 6700 nM) was -0.027 ± 0.0014 and the “level (log10)” value ([4]; 20000 nM) was 0.0075 ± 0.0021. The “level (log10)” value ([4]; 60000 nM) was 0.0035 ± 0.012, the “level (log10)” value ([5]; 6700 nM) was 0.0155 ± 0.00071 and the “level (log10)” value ([5]; 20000 nM) was 0.0205 ± 0.036. For the same test system, the “level (log10)” value ([6]; 6700 nM) was 0.019 ± 0.014, the “level (log10)” value ([6]; 20000 nM) was 0.021 ± 0.03 and the “level (log10)” value ([6]; 60000 nM) was 0.017 ± 0.031. The “level (log10)” value ([7]; 6700 nM) was -0.032 ± 0.023, the “level (log10)” value ([7]; 20000 nM) was -0.051 ± 0.02 and the “level (log10)” value ([7]; 60000 nM) was -0.0425 ± 0.023. The “level (log10)” value ([8]; 6700 nM) was 0.016 ± 0.014, the “level (log10)” value ([8]; 20000 nM) was -0.0055 ± 0.069 and the “level (log10)” value ([8]; 60000 nM) was 0.002 ± 0.0014. For the same test system, the “level (log10)” value ([9]; 6700 nM) was -0.008 ± 0.011, the “level (log10)” value ([9]; 20000 nM) was -0.0165 ± 0.005 and the “level (log10)” value ([9]; 60000 nM) was 0.016 ± 0.025. For the same test system, the “level (log10)” value ([10]; 6700 nM) was 0.012 ± 0.014, the “level (log10)” value ([10]; 20000 nM) was 0.0085 ± 0.0092 and the “level (log10)” value ([10]; 60000 nM) was 0.0185 ± 0.028. The “level (log10)” value [11] was -0.038 ± 0.0057, the “level (log10)” value ([12]; 6700 nM) was -0.0055 ± 0.039 and the “level (log10)” value ([12]; 20000 nM) was 0.012 ± 0.018. For the same test system, the “level (log10)” value ([12]; 60000 nM) was 0.0625 ± 0.018, the “level (log10)” value ([13]; 6700 nM) was -0.0115 ± 0.042 and the “level (log10)” value ([13]; 20000 nM) was -0.012 ± 0.013. The “level (log10)” value ([13]; 60000 nM) was 0.031 ± 0.023, the “level (log10)” value ([14]; 6700 nM) was -0.016 ± 0.018 and the “level (log10)” value ([14]; 20000 nM) was -0.018 ± 0.0057. For the same test system, the “level (log10)” value ([14]; 60000 nM) was 0.008 ± 0.013, the “level (log10)” value ([15]; 6700 nM) was 0.0225 ± 0.0092 and the “level (log10)” value ([15]; 20000 nM) was 0.0245 ± 0.0078. The “level (log10)” value ([15]; 60000 nM) was 0.0185 ± 0.011, the “level (log10)” value ([16]; 6700 nM) was 0.007 ± 0.011 and the “level (log10)” value ([16]; 20000 nM) was 0.009 ± 0.023. For the same test system, the “level (log10)” value ([17]; 6700 nM) was -0.054 ± 0.071, the “level (log10)” value ([17]; 20000 nM) was -0.0535 ± 0.026 and the “level (log10)” value ([17]; 60000 nM) was -0.003 ± 0.024. The “level (log10)” value ([18]; 6700 nM) was 0.0025 ± 0.019, the “level (log10)” value ([18]; 20000 nM) was -0.007 ± 0.0057 and the “level (log10)” value ([18]; 60000 nM) was 0.0065 ± 0.032. The “level (log10)” value ([19]; 6700 nM) was -0.035 and the “level (log10)” value ([19]; 20000 nM) was 0.008 ± 0.024.
